# Legend:
# [1] = tested on: DIO mice; test: Indirect calorimetry; type: in vivo, mouse; details: +2 to +12, light and dark cycle; light p = 0.496, dark p = 0.2581
# [2] = biological target: Kv1.3 (Rattus norvegicus, UniProt P15384); test: Whole-cell patch-clamp inhibition of Kv1.3 in transfected HEK293 cells; type: cell-based; details: 10 nM; T0 vs T5 (225 s); two-way mixed-design ANOVA
# [3] = tested on: DIO mice; test: Intraperitoneal glucose tolerance test in obese mice; type: in vivo, mouse; details: day +13 after OB pump start, 12 h fasted, vs PBS; treatment p = 0.0146
# [4] = tested on: mitral cells; details: cited from earlier work
# [5] = tested on: Kv1.3; details: ref Knaus et al. 1995; Fadool and Levitan 1998; cited from earlier work
# Sequence of Kv1.3 (Rattus norvegicus, UniProt P15384) (P15384 whole entry): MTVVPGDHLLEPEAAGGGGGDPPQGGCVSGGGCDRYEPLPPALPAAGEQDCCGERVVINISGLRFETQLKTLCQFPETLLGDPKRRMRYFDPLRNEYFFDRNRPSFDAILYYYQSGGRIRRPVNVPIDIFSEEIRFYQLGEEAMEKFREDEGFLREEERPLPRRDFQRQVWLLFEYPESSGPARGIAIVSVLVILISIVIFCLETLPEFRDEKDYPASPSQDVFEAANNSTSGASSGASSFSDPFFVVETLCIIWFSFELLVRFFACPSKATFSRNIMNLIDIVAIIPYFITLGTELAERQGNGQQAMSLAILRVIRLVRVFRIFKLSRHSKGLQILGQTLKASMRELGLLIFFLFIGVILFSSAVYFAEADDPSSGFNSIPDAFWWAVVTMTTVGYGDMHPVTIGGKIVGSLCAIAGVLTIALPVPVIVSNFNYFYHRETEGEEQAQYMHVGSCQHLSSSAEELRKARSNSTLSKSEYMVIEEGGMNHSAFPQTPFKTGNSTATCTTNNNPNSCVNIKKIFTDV
substance,measurement,setting,value
"QDMgTx: HisMgTx conjugated to His-PIMA-ZW capped CdSe-ZnS QDs by metal-histidine self-assembly (TIINVKCTSPKQCLPPCKAQFGQSAGAKCMNGKCKCYPH; His tag; self-assembled on CdSe-ZnS quantum dots; UniProt P40755 1-39, looked up)",energy expenditure (EE),[1],no change in EE in either the light or dark cycle
same,change in Kv1.3 peak current amplitude (in words),[2],significantly decreased Kv1.3 peak current amplitude
same,glucose clearance (IPGTT),[3],cleared glucose significantly faster than control animals
insulin,ability to increase mitral cell activity after diet-induced obesity,"[4]; following diet-induced obesity, ref Fadool et al. 2011",significantly reduced
"margatoxin (TIINVKCTSPKQCLPPCKAQFGQSAGAKCMNGKCKCYPH; UniProt P40755 1-39, looked up) [MgTx]",koff (printed as a time),[5],2 h
same,kon (in words),[5],rather slow for a vestibule blocker
same,effect on mitral cell spike firing,"[4]; ref Mast and Fadool 2012, Thiebaud et al. 2016","increase the spike firing frequency and reduce the pause duration between AP trains, but have less effect on ISI"
